# Patent US4547508A, “1-Phenylisoquinoline derivatives, pharmaceutical products containing these compounds and their use” (Hoechst Aktiengesellschaft, priority 1982, dated 1985)
# How the values were obtained:
# [1] = Acute toxicity in the mouse after intraperitoneal administration (ALD50); set-up: species or system male mice (Gassner, NMRI); settings: in vivo, ip, deaths within 24 hours after administration
# Experimental: A. Acute toxicity in the mouse after intraperitoneal administration (ALD50)
# The experimental animals used were male mice (Gassner, NMRI) of body weight 20-30 g. 6 animals were tested in each group. The compounds were suspended in 1% strength methylhydroxyethylcellulose (MH) and administered intraperitoneally (i.p.) to the animals in a volume of 10 ml/kg of body weight. The compounds according to the invention were administered in doses of 3, 10, 30 and 100 mg/kg i.p.
# The acute lethal dose (ALD50) was determined graphically from the number of animals which died within 24 hours after administration of the compound.
# [2] = tested on: tetrabenazine-induced ptosis; test: Prevention of the ptosis induced by tetrabenazine in mice after intraperitoneal administration; format: in vivo, male mice (Gassner, NMRI); settings: ip; mouse, i.p., 30 minutes before TBZ 40 mg/kg i.p.; dose which reduces the mean ptosis index (maximum 4) by 50%
# Experimental: B. Prevention of the ptosis induced by tetrabenazine in mice after intraperitoneal administration
# The experimental animals used were male mice (Gassner, NMRI) of body weight 20-26 g. 5 animals were tested in each group. The compounds were suspended in 1% strength methylhydroxyethylcellulose and administered intraperitoneally (i.p.) to the animals in a volume of 10 ml/kg of body weight. The compounds according to the invention were tested in doses of 5, 10 and 20 mg/kg i.p. The control group merely received 10 ml/kg of MH not containing active ingredient i.p.
# The componds were administered to the animals 30 minutes before the i.p. administration of tetrabenazine (TBZ). The control group merely received 1% strength MH and TBZ in accordance with the same schedule as that for the animals treated with the test substances.
# 30 minutes after the TBZ injection (TBZ: 40 mg/kg i.p.), the animals were placed in individual plastic boxes and the ptosis was assessed 1 minute later in accordance with the scheme below:
# Eyes closed = 4 (100% ptosis)
# Eyes 3/4 closed = 3 (75% ptosis)
# Eyes 1/2 closed = 2 (50% ptosis)
# Eyes 1/4 closed = 1 (25% ptosis)
# Eyes open = 0 (0% ptosis)
# The dose defined as the ED50 is that which reduces the mean ptosis index (maximum 4) by 50%.
# [3] = tested on: norepinephrine uptake (synaptosomes from rat brain); test: Inhibition of reuptake of norepinephrine in synaptosomes; format: biochemical; settings: 14C-norepinephrine, pH 7.4, 37° C., 4 minutes
# Experimental: C. Inhibition of reuptake of norepinephrine in synaptosomes
# Synaptosomes from rat brain were isolated by the method of Whittaker (Handbook of Neurochemistry 2, 327-364, Editor A. Lajtha; London and New York, 1969) and the uptake of monoamine was measured by the method of Schacht and Heptner (Biochemical Pharmac. 23, 3413-3422). The ^14 C-norepinephrine uptake was measured in a Krebs-Henseleit bicarbonate buffer pH 7.4 which contained 11 millimoles of glucose. 2.5 ml of the suspension of synaptosomes were incubated with labeled norepinephrine at 37° C. in the presence or absence of the test substance. The incubation time was 4 minutes. Further uptake was then stopped by cooling in ice. In order to exclude non-specific adsorption, control samples were incubated at 0° C. under otherwise identical conditions.
# The amounts of norepinephrine taken up were measured using the membrane filtration technique using a Millipore sampling manifold with cellulose nitrate filters of 25 mm diameter and 0.6 micrometer pore size. The synaptosomes were collected under reduced pressure and the radioactivity was determined in a Packard Tricarb scintillation counter. The amount of collected norepinephrine has been reported as a percentage of the radioactivity which was added to the incubation mixture.
# The IC50 values (inhibition concentration) in the Table 1 below indicate the concentration of the test substances which show 50% inhibition of the uptake of ^14 C-norepinephrine.
Compound,LD50 at 24 h [1] [mg/kg],ED50 [2] [mg/kg],IC50 [3] [µM]
"CCN1CC=C(c2cc3ccccc3c(-c3ccccc3C)n2)CC1 [Example 2, 3-(1-Ethyl-1,2,5,6-tetrahydro-4-pyridyl)-1-(2-methylphenyl)isoquinoline]",100,1.4,
"Cc1ccccc1-c1nc(C2=CCNCC2)cc2ccccc12 [Example 3, 1-(2-Methylphenyl)-3-(1,2,5,6-tetrahydro-4-pyridyl)isoquinoline]",210,0.13,0.0056
CN1CC=C(c2cc3ccccc3c(-c3ccccc3Cl)n2)CC1 [Example 6],100,0.79,0.033
CN1CC=C(c2cc3ccccc3c(-c3ccccc3F)n2)CC1 [Example 8],85,0.54,0.01
C=CCN1CC=C(c2cc3ccccc3c(-c3ccccc3C)n2)CC1 [Example 11],300,0.49,
C1=C(c2cc3ccccc3c(-c3ccccc3)n2)CCNC1 [Example 13],300,0.5,0.0062
CN1CCC=C(c2cc3ccccc3c(-c3ccccc3)n2)C1 [Example 19],40,3.3,0.05
C1=C(c2cc3ccccc3c(-c3ccccc3)n2)CNCC1 [Example 20],75,0.33,0.013
"c1ccc(-c2nc(C3CCNCC3)cc3ccccc23)cc1 [Example 21, 1-Phenyl-3-(4-piperidinyl)isoquinoline]",75,0.8,0.017
"C=CCN1CCC(c2cc3ccccc3c(-c3ccccc3C)n2)CC1 [Example 23, 3-(1-Allyl-4-piperidinyl)-1-(2-methylphenyl)isoquinoline]",55,3,
CN1CCC(c2cc3ccccc3c(-c3ccccc3)n2)CC1 [Example 25],28,6.59,
Cc1ccccc1-c1nc(C2CCN(C)CC2)cc2ccccc12 [Example 27],27,0.53,
